Earlier results as cited in patent EP3409275B1, “COMPOSITION FOR PREVENTION AND/OR TREATMENT OF DISEASES ASSOCIATED TO HYPERALGESIA” (Neilos S.r.l., priority 2017, dated 2018).

How the values were obtained:
GPR55 orphan receptor = GPR55 orphan receptor (Homo sapiens, UniProt Q9Y2T6); conditions: activation of GPR55
[1] = mice, curcumin 40 mg/kg, phenylbutazone at similar doses
[2] = 2 g of curcumin with 20 mg of piperine, healthy volunteers

Sequence of GPR55 orphan receptor (Q9Y2T6 whole entry): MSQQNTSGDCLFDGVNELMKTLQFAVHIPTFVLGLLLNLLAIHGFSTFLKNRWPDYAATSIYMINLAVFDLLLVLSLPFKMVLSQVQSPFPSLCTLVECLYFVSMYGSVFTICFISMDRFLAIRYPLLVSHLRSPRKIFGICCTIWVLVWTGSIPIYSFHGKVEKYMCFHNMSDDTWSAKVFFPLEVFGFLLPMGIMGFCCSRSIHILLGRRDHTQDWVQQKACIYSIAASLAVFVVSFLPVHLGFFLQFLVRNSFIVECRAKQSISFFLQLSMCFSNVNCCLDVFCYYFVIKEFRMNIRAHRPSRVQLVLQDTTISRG

## CCCCCCCCCCCCCCCC(=O)NCCO [PEA, N-(2-hydroxyethyl) hexadecanamide]
GPR55 orphan receptor
  EC50: 4 nM
In vivo
  removal half-life: about 12 minutes
Oral administration
  area under the curve of PEA plasmatic level (AUC1-8h): 6525 ± 1372 ng PEA min ml-1
  tmax: 15 min
Oral administration, Wistar rats
  maximum plasmatic concentration (Cmax): 420 ± 132 nm

## CCCCC1C(=O)N(c2ccccc2)N(c2ccccc2)C1=O [phenylbutazone]
[1]
  ulcerogenic index: 1.70

## O=C(/C=C/C=C/c1ccc2c(c1)OCO2)N1CCCCC1 [piperine]
[2]
  increase in oral bioavailability of curcumin: 20 times
